Measured values from patent US12459967B2, “Modulators of 5′-nucleotidase, ecto and the use thereof” (Arcus Biosciences, Inc., priority 2016, dated 2025).

Molecular target: T1, human CD73 (Homo sapiens, UniProt P21589)
T1 construct: host or cells: CHO-K1 (suspension pool CHO-CD73)
T1 sequence (P21589 27-549): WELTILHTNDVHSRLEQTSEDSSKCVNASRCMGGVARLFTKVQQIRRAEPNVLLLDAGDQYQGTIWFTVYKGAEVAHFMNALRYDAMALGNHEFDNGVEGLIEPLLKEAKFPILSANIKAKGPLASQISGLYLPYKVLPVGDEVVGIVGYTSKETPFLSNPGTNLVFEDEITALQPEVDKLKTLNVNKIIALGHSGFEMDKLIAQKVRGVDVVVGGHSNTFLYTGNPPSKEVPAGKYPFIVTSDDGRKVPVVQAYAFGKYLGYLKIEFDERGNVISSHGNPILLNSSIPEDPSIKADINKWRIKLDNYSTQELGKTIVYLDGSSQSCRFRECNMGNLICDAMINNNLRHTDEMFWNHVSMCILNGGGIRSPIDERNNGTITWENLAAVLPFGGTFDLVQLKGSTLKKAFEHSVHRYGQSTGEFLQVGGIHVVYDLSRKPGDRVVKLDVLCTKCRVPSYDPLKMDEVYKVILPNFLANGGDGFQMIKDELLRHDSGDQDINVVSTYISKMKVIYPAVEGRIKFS
Experiment: Inhibition of ecto-5′-nucleotidase (CD73) activity in CHO-CD73 cells, phosphate colorimetric readout
Assay type: cell-based
Conditions: CHO-K1 cells stably transfected with human CD73, 2500 cells per well, 25 μM AMP substrate, 50 minutes incubation at 37° C.; read-out: Potency: CD73 IC50
Method: Inhibition of Ecto-5′-nucleotidase Activity. Compounds were evaluated to determine their ecto-5′-nucleotidase (CD73) inhibitory activity. Briefly, CHO-K1 cells stably transfected with human CD73 were generated by LakePharma (Belmont, CA) using molecular cloning of human CD73 (http://www.uniprot.org/uniprot/P21589) and mammalian transient expression vector (P21589.1). After antibiotic selection in CD OptiCHO cell media (Invitrogen, Catalog #12681-011) containing 5 μg/mL Puromycin and 200 μg/mL Hygromycin B, a suspension pool of CHO-CD73 cells was collected and frozen in 7.5% DMSO in cell media without antibiotics.
On the day of the experiment, one vial of CHO-CD73 cells was thawed and suspended in assay media which consisted of 20 mM HEPES, pH 7.4, 137 mM NaCl, 5.4 mM KCl, 1.3 mM CaCl2), 4.2 mM NaHCO3 and 0.1% glucose. To test the ability of compounds to inhibit CD73 enzymatic activity, 2 μL of 500 μM of compounds dissolved in DMSO (50×) were added to a 96-well polystyrene plate containing 58 μL of assay buffer. Next, 20 μL of CHO-CD73 cells in assay buffer were added to assay plate followed by 20 μL of 125 μM AMP (Adenosine 5′-monophosphate monohydrate) in assay buffer. Final assay conditions consisted of 2500 cells per well in 2% DMSO and 25 μM of AMP substrate. After 50 minutes of incubation (37° C. and 5% CO2) and centrifugation at 225×g for 5 mins, 80 μL of supernatant were transferred to a 96-well Spectra Plate (PerkinElmer, cat #6005640) which was pre-dispensed with 20 μL of PiColorLock Gold colorimetric assay reagents (Thermo, cat #30 300 30). The amount of inorganic phosphate was determined by reading the absorbance at 620 nm on an EnVision Multilabel Plate Reader (PerkinElmer). Enzymatic activity of CD73 was based on the amount of phosphate generated. Percentage of activity was calculated based on DMSO and no cells control wells. IC50 values of compounds were determined by four parameter non-linear regression fitting of percentage of activity in GraphPad Prism software.

| Structure (SMILES) | IC50 [µM] |
| --- | --- |
| O=P(O)(O)CP(=O)(O)OC[C@H]1O[C@@H](n2cnc3c(NCc4cccc(F)c4)nc(Cl)nc32)[C@@H](F)[C@@H]1O | < 0.1 |
| C[C@@H](Nc1nc(Cl)nc2c1ccn2[C@@H]1O[C@H](COP(=O)(O)CP(=O)(O)O)[C@@H](O)[C@@H]1F)c1ccc(F)cc1 | < 0.1 |
| C[C@H](Nc1nc(Cl)nc2c1cnn2[C@@H]1O[C@H](COP(=O)(O)CP(=O)(O)O)[C@@H](O)[C@@H]1F)c1ccccc1F | < 0.1 |
| O=P(O)(O)CP(=O)(O)OC[C@H]1O[C@@H](n2cnc3c(NC4CCOCC4)nc(Cl)nc32)[C@@H](F)[C@@H]1O | < 0.1 |
| C[C@H](Nc1nc(Cl)nc2c1ccn2[C@@H]1O[C@H](COP(=O)(O)CP(=O)(O)O)[C@@H](O)[C@H]1O)c1cccc(F)c1 | < 0.1 |
| COC(=O)c1ccccc1OP(=O)(CP(=O)(Oc1ccccc1C(=O)OC)Oc1ccccc1C(=O)OC)OC[C@H]1O[C@@H](n2cnc3c(N(C)C4CCCC4)nc(Cl)nc32)[C@H](O)[C@@H]1O (stereo partly shown) | > 1 |
| O=P(O)(O)CP(=O)(O)OC[C@H]1O[C@@H](n2cnc3c(NCc4ccccc4)nc(Cc4ccccc4)nc32)[C@@H](F)[C@@H]1O | < 0.1 |
| C[C@H](Nc1nc(Cl)nc2c1ncn2[C@@H]1O[C@H](COP(=O)(O)CP(=O)(O)O)[C@@H](O)[C@@H]1F)c1ccc(F)cc1 | < 0.1 |
| CC(C)(C)c1ccc(CNc2ncnc3c2ncn3[C@@H]2O[C@H](COP(=O)(O)CP(=O)(O)O)[C@@H](O)[C@H]2O)cc1 | < 0.1 |
| O=P(O)(O)CP(=O)(O)OC[C@H]1O[C@@H](n2cnc3c(NCc4ccc(Cl)cc4)nc(Cl)nc32)[C@@H](F)[C@@H]1O | < 0.1 |
| O=P(O)(O)CP(=O)(O)OC[C@H]1O[C@@H](n2cnc3c(N4CCCCC4)nc(Cl)nc32)[C@@H](F)[C@@H]1O | < 0.1 |
| O=P(O)(O)CP(=O)(O)OC[C@H]1O[C@@H](n2cnc3c(NC4CCCC4)cc(Cl)nc32)[C@@H](F)[C@@H]1O | < 0.1 |
| COP(=O)(CP(=O)(O)OC[C@H]1O[C@@H](n2cnc3c(N(C)C4CCCC4)nc(Cl)nc32)[C@@H](F)[C@@H]1O)OC | > 1 |
| C[C@H](Nc1nc(Cl)nc2c1cnn2[C@@H]1O[C@H](COP(=O)(O)CP(=O)(O)O)[C@@H](O)[C@H]1O)c1ccc(F)cc1 | < 0.1 |
| Cc1nc(NCc2ccccc2)c2ncn([C@@H]3O[C@H](COP(=O)(O)CP(=O)(O)O)[C@@H](O)[C@H]3O)c2n1 | < 0.1 |
| C[C@@H](Nc1nc(Cl)nc2c1cnn2[C@@H]1O[C@H](COP(=O)(O)CP(=O)(O)O)[C@@H](O)[C@@H]1F)c1ccc(F)cc1 | < 0.1 |
| CCc1nc(NCc2ccccc2)c2ncn([C@@H]3O[C@H](COP(=O)(O)CP(=O)(O)O)[C@@H](O)[C@H]3O)c2n1 | < 0.1 |
| CCNc1nc(Cl)nc2c1ncn2[C@@H]1O[C@H](COP(=O)(O)CP(=O)(O)O)[C@@H](O)[C@@H]1F | < 0.1 |
| C[C@@H](Nc1cc(Cl)nc2c1cnn2[C@@H]1O[C@H](COP(=O)(O)CP(=O)(O)O)[C@@H](O)[C@H]1O)c1ccccc1 | < 0.1 |
| O=P(O)(O)CP(=O)(O)OC[C@H]1O[C@@H](n2cnc3c(OCc4ccccc4)nc(Cl)nc32)[C@@H](F)[C@@H]1O | < 0.1 |
| O=P(O)(O)CP(=O)(O)OC[C@H]1O[C@@H](n2cnc3c(N[C@H]4CCOC4)nc(Cl)nc32)[C@@H](F)[C@@H]1O | < 0.1 |
| C[C@H](Nc1nc(Cl)nc2c1ccn2[C@@H]1O[C@H](COP(=O)(O)CP(=O)(O)O)[C@@H](O)[C@@H]1F)c1cccc(F)c1 | < 0.1 |
| Cc1cccc(CNc2nc(Cl)nc3c2ncn3[C@@H]2O[C@H](COP(=O)(O)CP(=O)(O)O)[C@@H](O)[C@@H]2F)c1 | < 0.1 |
| C[C@@H](Nc1nc(Cl)nc2c1cnn2[C@@H]1O[C@H](COP(=O)(O)CP(=O)(O)O)[C@@H](O)[C@H]1O)c1cccc(F)c1 | < 0.1 |
| C[C@@H](Nc1nc(Cl)nc2c1cnn2[C@@H]1O[C@H](COP(=O)(O)CP(=O)(O)O)[C@@H](O)[C@H]1O)c1ccccc1 | < 0.1 |
| C[C@@H](Nc1nc(Cl)nc2c1ccn2[C@@H]1O[C@H](COP(=O)(O)CP(=O)(O)O)[C@@H](O)[C@@H]1F)c1ccccc1 | < 0.1 |

| Structure (SMILES) | IC50 [µM] |
| --- | --- |
| CC(OP(=O)(O)CP(=O)(O)O)[C@H]1O[C@@H](n2cnc3c(NCc4ccccc4)nc(Cl)nc32)[C@H](O)[C@@H]1O (stereo partly shown) | < 0.1 |
| O=P(O)(O)CP(=O)(O)OC[C@H]1O[C@@H](n2cnc3c(NCc4ccccc4)nc(CCc4ccccc4)nc32)[C@@H](F)[C@@H]1O | < 0.1 |
| O=P(O)(O)CP(=O)(O)OC[C@H]1O[C@@H](n2cnc3c(NCc4ccccc4)nc(Cl)nc32)[C@@H](F)[C@@H]1O | < 0.1 |
| O=P(O)(O)CP(=O)(O)OC[C@H]1O[C@@H](n2cnc3c(NCc4ccccc4)nc(N4CCCC4)nc32)[C@H](O)[C@@H]1O | < 0.1 |
| O=P(O)(O)CP(=O)(O)OC[C@H]1O[C@@H](n2cnc3c(NCc4ccccc4)nc(C(O)c4ccccc4)nc32)[C@@H](F)[C@@H]1O (stereo partly shown) | < 0.1 |
| O=P(O)(O)CP(=O)(O)OC[C@H]1O[C@@H](n2cnc3c(NC4CCCC4)nc(Cl)cc32)[C@@H](F)[C@@H]1O | < 0.1 |
| C[C@@H](Nc1nc(Cl)nc2c1ccn2[C@@H]1O[C@H](COP(=O)(O)CP(=O)(O)O)[C@@H](O)[C@@H]1F)c1ccccc1F | < 0.1 |
| O=P(O)(O)CP(=O)(O)OC[C@H]1O[C@@H](n2cnc3c(NC4CCCC4)nc(Cl)cc32)[C@H](O)[C@@H]1O | < 0.1 |
| O=P(O)(O)CP(=O)(O)OC[C@H]1O[C@@H](n2cnc3c(NC4CC4)nc(Cl)nc32)[C@@H](F)[C@@H]1O | < 0.1 |
| O=P(O)(O)CP(=O)(O)OC[C@H]1O[C@@H](n2cnc3c(NCc4ccccc4)nc(C#Cc4ccccc4)nc32)[C@@H](F)[C@@H]1O | < 0.1 |
| Cc1ccc(CNc2ncnc3c2ncn3[C@@H]2O[C@H](COP(=O)(O)CP(=O)(O)O)[C@@H](O)[C@H]2O)cc1 | < 0.1 |
| O=P(O)(O)CP(=O)(O)OC[C@H]1O[C@@H](n2cnc3c(NCc4cccc(Cl)c4)nc(Cl)nc32)[C@@H](F)[C@@H]1O | < 0.1 |
| C#Cc1nc(NCc2ccccc2)c2ncn([C@@H]3O[C@H](COP(=O)(O)CP(=O)(O)O)[C@@H](O)[C@@H]3F)c2n1 | < 0.1 |
| CNc1nc(Cl)nc2c1ncn2[C@@H]1O[C@H](COP(=O)(O)CP(=O)(O)O)[C@@H](O)[C@@H]1F | < 0.1 |
| CN(c1nc(Cl)nc2c1ncn2[C@@H]1O[C@H](COP(=O)(O)CP(=O)(O)O)[C@@H](O)[C@@]1(C)O)C1CCCC1 | < 0.1 |
| C[C@@]1(O)[C@H](O)[C@@H](COP(=O)(O)CP(=O)(O)O)O[C@H]1n1cnc2c(NC3CCCC3)nc(Cl)nc21 | < 0.1 |
| CN(Cc1ccccc1)c1nc(Cl)nc2c1ncn2[C@@H]1O[C@H](COP(=O)(O)CP(=O)(O)O)[C@@H](O)[C@@H]1F | < 0.1 |
| O=P(O)(O)CP(=O)(O)OC[C@H]1O[C@@H](n2ncc3c(NC4CCCC4)cc(Cl)nc32)[C@@H](F)[C@@H]1O | < 0.1 |
| O=P(O)(O)CP(=O)(O)OC[C@H]1O[C@@H](n2ncc3c(N[C@H]4CCOC4)nc(Cl)nc32)[C@H](O)[C@@H]1O | < 0.1 |
| O=P(O)(O)CP(=O)(O)OC[C@H]1O[C@@H](n2cnc3c(N[C@@H]4CCOC4)nc(Cl)nc32)[C@@H](F)[C@@H]1O | < 0.1 |
| COc1nc(NCc2ccccc2)c2ncn([C@@H]3O[C@H](COP(=O)(O)CP(=O)(O)O)[C@@H](O)[C@H]3O)c2n1 | < 0.1 |
| C[C@H](Nc1nc(Cl)nc2c1cnn2[C@@H]1O[C@H](COP(=O)(O)CP(=O)(O)O)[C@@H](O)[C@H]1O)c1ccccc1 | < 0.1 |
| CC(C)(C)CNc1nc(Cl)nc2c1ncn2[C@@H]1O[C@H](COP(=O)(O)CP(=O)(O)O)[C@@H](O)[C@H]1O | < 0.1 |
| O=P(O)(O)CP(=O)(O)OC[C@H]1O[C@@H](n2ncc3c(NCCc4ccccc4Cl)nc(Cl)nc32)[C@H](O)[C@@H]1O | < 0.1 |
| O=P(O)(O)CP(=O)(O)OC[C@H]1O[C@@H](n2ncc3c(NCc4ccccc4)nc(Cl)nc32)[C@@H](F)[C@@H]1O | < 0.1 |
| O=P(O)(O)CP(=O)(O)OC[C@H]1O[C@@H](n2cnc3c(NCc4cc(Cl)cc(Cl)c4)ncnc32)[C@H](O)[C@@H]1O | < 0.1 |
